Entries after “also recorded” stand apart in the source; their conditions may differ.
Assays:
[1] = for plasma concentrations following tigecycline coadministration: versus warfarin 25 mg alone, FIG. 1, FIG. 2; for increase of exposure (AUC): warfarin given with a therapeutic regimen of tigecycline
[2] = system: international normalized ratio (INR); conditions: in vivo; cited from earlier work
[3] = Tigecycline steady-state serum pharmacokinetics, alone and with warfarin; type: in vivo, human (healthy subjects)
Description: Blood tubes for tigecycline analysis are placed immediately on ice until a clot forms.
Thus, the peak concentration (Cmax) and the time to peak concentration (tmax) are taken directly from the observed data. […] Systemic clearance (Cl) is calculated as dose/AUC, and it is presented both corrected and uncorrected for body weight.

[4] = Safety in healthy subjects of the drug interaction study; type: in vivo, human (healthy subjects); conditions: single 25-mg oral warfarin alone, multiple 50-mg IV tigecycline, and combined
[5] = combination versus warfarin alone
[6] = single 25-mg oral dose of warfarin, Mean ± SD

## CC(=O)C[C@H](c1ccccc1)c1c(O)c2ccccc2oc1=O [R-warfarin]
[1]
  plasma concentrations following tigecycline coadministration: higher
  increase of exposure (AUC): 68%

## CN(C)c1ccc(O)c2c1C[C@H]1C[C@H]3[C@H](N(C)C)C(O)=C(C(N)=O)C(=O)[C@@]3(O)C(O)=C1C2=O [minocycline]
[2]
  compatibility with warfarin: demonstrated incompatibility

## CN(C)c1cc(NC(=O)CNC(C)(C)C)c(O)c2c1C[C@H]1C[C@H]3[C@H](N(C)C)C(O)=C(C(N)=O)C(=O)[C@@]3(O)C(O)=C1C2=O [Tigecycline, (4S,4aS,5aR,12aS)-9-[2-(tert-butylamino)acetamido]-4,7-bis(dimethylamino)-1,4,4a,5,5a,6,11,12a-octahydro-3,10,12,12a-tetrahydroxy-1,11-dioxo-2-naphthacenecarboxamide]
[3]; following coadministration of warfarin
  mean steady-state systemic clearance and exposure (Cmax, C12h, AUC) versus monotherapy mean values: ≤ 10%
[3]; human, intravenous, 50 mg, tigecycline in serum, steady state, Mean ± SD
  Tmax: 30 min
[3]; human, intravenous, 50 mg, tigecycline in serum, steady state, Mean ± SD, read-out: AUC0-12 h
  AUC(0-t): 2100 ± 514 ng·h/mL
[3]; human, intravenous, 50 mg, tigecycline in serum, steady state, Mean ± SD, read-out: C12 h
  concentration at 12 h: 109 ± 28 ng/mL
[3]; human, tigecycline in serum, steady state, 50 mg IV every 12 h, Mean ± SD
  Cmax: 886 ± 202 ng/mL
[3]; tigecycline intravenous clearance, steady state, Mean ± SD
  systemic clearance: 5.17 ± 1.2 mL/min/kg
[4]
  safety-related concerns: No safety-related concerns
Prothrombin time (INR); [5]
  mean INR AUC0-[…] following the combination treatment: unchanged
  mean INRmax lower following the combination treatment: 10%
Prothrombin time (INR); therapeutic regimen of tigecycline with warfarin
  effect on warfarin's anticoagulant profile (measured by INR): does not significantly alter; also recorded: did not significantly alter
[1]; coadministration of the therapeutic regimen of tigecycline
  effect on oral-dose clearance of R-warfarin and S-warfarin: significantly decreased

## CC(=O)CC(c1ccccc1)c1c(O)c2ccccc2oc1=O (racemic) [Warfarin, 3-(α-acetonylbenzyl)-4-hydroxycoumarin]
[4]
  safety-related concerns: No safety-related concerns
Prothrombin time (INR); [6]
  INR AUC0-[…]: 216 ± 14 h
  INRmax: 1.8 ± 0.3
  tmax (time to maximum INR value): 1800 ± 540 min
[1]; human, in vivo, po
  R-warfarin AUC: 73000 ± 18000 ng·h/mL
  R-warfarin Cl/F: 0.0717 ± 0.013 mL/min/kg
  S-warfarin AUC: 47000 ± 18000 ng·h/mL
  S-warfarin Cl/F: 0.117 ± 0.0317 mL/min/kg

## CC(=O)C[C@@H](c1ccccc1)c1c(O)c2ccccc2oc1=O [S-warfarin]
[1]
  plasma concentrations following tigecycline coadministration: higher
  increase of exposure (AUC): 29%
